According to US10556902B2 (Asceneuron SA, priority 2016, dated 2020):
Read-outs that look alike come from different tables or passages of the source.

Target: His-Tagged hOGA (human O-GlcNAcase) (Homo sapiens (Human), UniProt O60502)
Assay: Human O-GlcNAcase enzyme inhibition assay;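 further: reactions contained 20 nM His-tagged hOGA enzyme with 10 µM FL-GlcNAc substrate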
Assay type: biochemical
Details: FL-GlcNAc substrate
[1] = OGA enzyme inhibition assay, pH 6.5, activity classes defined in μM, read-out: OGA IC50

His-Tagged hOGA (human O-GlcNAcase), sequence (O60502 whole entry): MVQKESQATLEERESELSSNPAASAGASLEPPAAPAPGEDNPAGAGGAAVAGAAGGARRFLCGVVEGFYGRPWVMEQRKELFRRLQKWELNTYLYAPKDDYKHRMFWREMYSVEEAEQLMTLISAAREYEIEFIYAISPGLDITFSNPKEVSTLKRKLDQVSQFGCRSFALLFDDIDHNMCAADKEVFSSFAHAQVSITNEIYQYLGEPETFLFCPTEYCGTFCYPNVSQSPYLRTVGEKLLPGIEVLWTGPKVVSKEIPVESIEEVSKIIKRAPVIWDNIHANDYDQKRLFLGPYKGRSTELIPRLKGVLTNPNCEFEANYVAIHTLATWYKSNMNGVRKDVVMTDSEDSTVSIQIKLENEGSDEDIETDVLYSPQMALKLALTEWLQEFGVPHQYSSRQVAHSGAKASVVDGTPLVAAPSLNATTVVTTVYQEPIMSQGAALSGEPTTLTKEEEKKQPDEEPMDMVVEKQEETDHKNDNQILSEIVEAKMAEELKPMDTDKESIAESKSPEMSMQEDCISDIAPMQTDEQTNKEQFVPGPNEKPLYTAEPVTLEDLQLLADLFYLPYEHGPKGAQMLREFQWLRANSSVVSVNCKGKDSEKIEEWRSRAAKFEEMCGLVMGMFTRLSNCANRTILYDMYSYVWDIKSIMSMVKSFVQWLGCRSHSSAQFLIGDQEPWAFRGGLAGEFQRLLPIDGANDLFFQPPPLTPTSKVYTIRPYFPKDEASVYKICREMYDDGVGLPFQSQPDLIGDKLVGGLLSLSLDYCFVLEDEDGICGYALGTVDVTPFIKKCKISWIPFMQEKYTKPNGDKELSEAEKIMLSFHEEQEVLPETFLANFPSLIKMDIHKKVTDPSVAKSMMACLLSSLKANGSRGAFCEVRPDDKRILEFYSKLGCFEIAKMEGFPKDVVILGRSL
Description: Then, 20 nM of His-Tagged hOGA and 10 μM of FL-GlcNAc (Fluorescein mono-beta-D-(2-deoxy-2-N-acetyl) glucopyranoside; Marker Gene Technologies Inc, M1485) were added to the 384-well plate for a final volume of 20 μl.

SMILES | IC50 [1] [µM] | IC50 (OGA IC50 (M), pH 6.5, activity classes defined in μM) [µM]
CC(c1ccc2c(c1)OCC2)N1CCN(c2ncc(CO)cn2)CC1 (racemic) [Example 75, (2-(4-(1-(2,3-Dihydrobenzofuran-6-yl)ethyl)piperazin-1-yl)pyrimidin-5-yl) methanol] | < 0.05 | –
CC(c1ccc2c(c1)OCC2)N1CCN(c2ncc(C3(O)CC3)cn2)CC1 (racemic) [Example 76, 1-(2-(4-(1-(2,3-dihydrobenzofuran-6-yl)ethyl)piperazin-1-yl)pyrimidin-5-yl)cyclopropan-1-ol] | < 0.05 | –
CC(c1ccc2c(c1)OCC2)N1CCN(c2ncc(C(O)C(F)(F)F)cn2)CC1 (racemic) [Example 77, 1-(2-(4-(1-(2,3-dihydrobenzofuran-6-yl)ethyl)piperazin-1-yl)pyrimidin-5-yl)-2,2,2-trifluoroethan-1-ol] | < 0.05 | –
CC(C)C(O)c1cnc(N2CCN(C(C)c3ccc4c(c3)OCC4)CC2)nc1 (racemic) [Example 78, 1-(2-(4-(1-(2,3-dihydrobenzofuran-6-yl)ethyl)piperazin-1-yl)pyrimidin-5-yl)-2-methylpropan-1-ol] | < 0.05 | –
CC(c1ccc2c(c1)OCC2)N1CCN(c2ncc(C3(O)CCOC3)cn2)CC1 (racemic) [Example 79, 3-(2-(4-(1-(2,3-dihydrobenzofuran-6-yl)ethyl)piperazin-1-yl)pyrimidin-5-yl)tetrahydrofuran-3-ol] | < 0.05 | –
CC(c1ccc2c(c1)OCC2)N1CCN(c2ncc(C3(O)CCCCC3)cn2)CC1 (racemic) [Example 80, 1-(2-(4-(1-(2,3-dihydrobenzofuran-6-yl)ethyl)piperazin-1-yl)pyrimidin-5-yl)cyclohexan-1-ol] | < 0.05 | –
CC(c1ccc2c(c1)OCC2)N1CCN(c2ncc(C3(O)CCOCC3)cn2)CC1 (racemic) [Example 81, 4-(2-(4-(1-(2,3-dihydrobenzofuran-6-yl)ethyl)piperazin-1-yl)pyrimidin-5-yl)tetrahydro-2H-pyran-4-ol] | < 0.05 | –
CC(c1ccc2c(c1)OCC2)N1CCN(c2ncc(C3(O)COC3)cn2)CC1 (racemic) [Example 82, 3-(2-(4-(1-(2,3-dihydrobenzofuran-6-yl)ethyl)piperazin-1-yl)pyrimidin-5-yl)oxetan-3-ol] | < 0.05 | –
CC(c1ccc2cccnc2n1)N1CCN(c2ncc(C(O)C(F)(F)F)cn2)CC1 (racemic) [Example 83, 1-(2-(4-(1-(1,8-naphthyridin-2-yl)ethyl)piperazin-1-yl)pyrimidin-5-yl)-2,2,2-trifluoroethan-1-ol] | < 0.05 | –
CC(O)c1cnc(N2CCN(C(C)c3ccc4nccnc4c3)CC2)nc1 (racemic) [Example 84, 1-(2-(4-(1-(quinoxalin-6-yl)ethyl)piperazin-1-yl)pyrimidin-5-yl) ethan-1-ol] | 0.05 to 0.2 | –
CC(c1ccc2nccnc2c1)N1CCN(c2ncc(C(C)(C)O)cn2)CC1 (racemic) [Example 85, 2-(2-(4-(1-(quinoxalin-6-yl)ethyl)piperazin-1-yl)pyrimidin-5-yl) propan-2-ol] | 0.05 to 0.2 | –
CC(c1ccc2nccnc2c1)N1CCN(c2ncc(CO)cn2)CC1 (racemic) [Example 86, (2-(4-(1-(Quinoxalin-6-yl)ethyl)piperazin-1-yl)pyrimidin-5-yl) methanol] | 0.05 to 0.2 | –
CC(c1ccc2nccnc2c1)N1CCN(c2ncc(C(O)C(F)(F)F)cn2)CC1 (racemic) [Example 87, 2,2,2-trifluoro-1-(2-(4-(1-(quinoxalin-6-yl)ethyl)piperazin-1-yl)pyrimidin-5-yl)ethan-1-ol] | 0.05 to 0.2 | –
CC(C)C(O)c1cnc(N2CCN(C(C)c3ccc4nccnc4c3)CC2)nc1 (racemic) [Example 88, 2-methyl-1-(2-(4-(1-(quinoxalin-6-yl)ethyl)piperazin-1-yl)pyrimidin-5-yl) propan-1-ol] | 0.05 to 0.2 | –
CC(c1ccc2nccnc2c1)N1CCN(c2ncc(C3(O)CCOCC3)cn2)CC1 (racemic) [Example 89, 4-(2-(4-(1-(quinoxalin-6-yl)ethyl)piperazin-1-yl)pyrimidin-5-yl)tetrahydro-2H-pyran-4-ol] | 0.05 to 0.2 | –
Cc1cnc(N2CCN(C(C)c3ccc4c(c3)OCC4)CC2)nc1 (racemic) [Example 90, 2-(4-(1-(2,3-dihydrobenzofuran-6-yl)ethyl)piperazin-1-yl)-5-methylpyrimidine] | < 0.05 | –
CC(c1ccn2ccnc2c1)N1CCN(c2ncc(C(F)(F)F)cn2)CC1 (racemic) [Example 91, 7-(1-(4-(5-(trifluoromethyl)pyrimidin-2-yl)piperazin-1-yl)ethyl)imidazo[1,2-a]pyridine] | 1 to 10 | –
CC(c1ccc2cccnc2n1)N1CCN(c2ncc(C(F)(F)F)cn2)CC1 (racemic) [Example 92, 2-(1-(4-(5-(trifluoromethyl)pyrimidin-2-yl)piperazin-1-yl)ethyl)-1,8-naphthyridine] | 0.05 to 0.2 | –
CC(c1cnc2cccnc2c1)N1CCN(c2ncc(C(F)(F)F)cn2)CC1 (racemic) [Example 93, 3-(1-(4-(5-(trifluoromethyl)pyrimidin-2-yl)piperazin-1-yl)ethyl)-1,5-naphthyridine] | 0.2 to 1 | –
CC(c1ccc2nccnc2c1)N1CCN(c2ncc(C3=CCCC3)cn2)CC1 (racemic) [Example 94, 6-(1-(4-(5-(cyclopent-1-en-1-yl)pyrimidin-2-yl)piperazin-1-yl)ethyl)quinoxaline] | 0.2 to 1 | –

SMILES | IC50 [1] [µM] | IC50 (OGA IC50 (M), pH 6.5, activity classes defined in μM) [µM]
COC(=O)c1cnc(N2CCN(C(C)c3ccc4scnc4c3)CC2)nc1 (racemic) [Example 95, Methyl 2-(4-(1-(benzo[d]thiazol-5-yl)ethyl)piperazin-1-yl)pyrimidine-5-carboxylate] | < 0.05 | –
CNC(=O)c1cnc(N2CCN(C(C)c3ccc4scnc4c3)CC2)nc1 (racemic) [Example 96, 2-(4-(1-(benzo[d]thiazol-5-yl)ethyl)piperazin-1-yl)-N-methylpyrimidine-5-carboxamide] | < 0.05 | –
CC(c1ccc2scnc2c1)N1CCN(c2ncc(C(=O)N(C)C)cn2)CC1 (racemic) [Example 97, 2-(4-(1-(benzo[d]thiazol-5-yl)ethyl)piperazin-1-yl)-N,N-dimethylpyrimidine-5-carboxamide] | < 0.05 | –
COC(=O)c1cnc(N2CCN(C(C)c3ccc4c(c3)OCC4)CC2)nc1 (racemic) [Example 98, Methyl 2-(4-(1-(2,3-dihydrobenzofuran-6-yl)ethyl)piperazin-1-yl)pyrimidine-5-carboxylate] | < 0.05 | –
CNC(=O)c1cnc(N2CCN(C(C)c3ccc4c(c3)OCC4)CC2)nc1 (racemic) [Example 99, 2-(4-(1-(2,3-dihydrobenzofuran-6-yl)ethyl)piperazin-1-yl)-N-methylpyrimidine-5-carboxamide] | < 0.05 | –
CC(c1ccc2c(c1)OCC2)N1CCN(c2ncc(C(=O)N(C)C)cn2)CC1 (racemic) [Example 100, 2-(4-(1-(2,3-dihydrobenzofuran-6-yl)ethyl)piperazin-1-yl)-N,N-dimethylpyrimidine-5-carboxamide] | < 0.05 | –
CC(c1ccc2c(c1)OCC2)N1CCN(c2nccc(C(=O)N(C)C)n2)CC1 (racemic) [Example 101, 2-(4-(1-(2,3-dihydrobenzofuran-6-yl)ethyl)piperazin-1-yl)-N,N-dimethylpyrimidine-4-carboxamide] | < 0.05 | –
COC(=O)c1ccnc(N2CCN(C(C)c3ccc4c(c3)OCC4)CC2)n1 (racemic) [Example 102, Methyl 2-(4-(1-(2,3-dihydrobenzofuran-6-yl)ethyl)piperazin-1-yl)pyrimidine-4-carboxylate] | < 0.05 | –
CNC(=O)c1ccnc(N2CCN(C(C)c3ccc4c(c3)OCC4)CC2)n1 (racemic) [Example 103, 2-(4-(1-(2,3-dihydrobenzofuran-6-yl)ethyl)piperazin-1-yl)-N-methylpyrimidine-4-carboxamide] | < 0.05 | –
CC(=O)NC(C)(C)c1cnc(N2CCN(C(C)c3ccc4c(c3)OCC4)CC2)nc1 (racemic) [Example 104] | < 0.05 | –
COC(=O)c1cnc(N2CCN(C(C)c3ccc4nccnc4c3)CC2)nc1 (racemic) [Example 105, Methyl 2-(4-(1-(quinoxalin-6-yl)ethyl)piperazin-1-yl)pyrimidine-5-carboxylate] | 0.05 to 0.2 | –
CC(c1ccc2nccnc2c1)N1CCN(c2ncc(C(=O)O)cn2)CC1 (racemic) [Example 106, 2-(4-(1-(quinoxalin-6-yl)ethyl)piperazin-1-yl)pyrimidine-5-carboxylic acid] | 0.05 to 0.2 | –
CC(=O)NC(C)(C)c1cnc(N2CCN(C(C)c3ccc4nccnc4c3)CC2)nc1 (racemic) [Example 107, N-(2-(2-(4-(1-(quinoxalin-6-yl)ethyl)piperazin-1-yl)pyrimidin-5-yl)propan-2-yl)acetamide] | 0.2 to 1 | –
CC(=O)NCc1nnc(N2CCN(C(C)c3ccc4c(c3)OCC4)CC2)s1 (racemic) [Example 110] | < 0.05 | –
CC(=O)Nc1nnc(N2CCN(C(C)c3cnc4cccnc4c3)CC2)s1 (racemic) [Example 111, N-(5-(4-(1-(1,5-naphthyridin-3-yl)ethyl)piperazin-1-yl)-1,3,4-thiadiazol-2-yl)acetamide] | 0.05 to 0.2 | –
CC(=O)NCc1nnc(N2CCN(C(C)c3ccc4nccnc4c3)CC2)s1 (racemic) [Example 112, N-((5-(4-(1-(quinoxalin-6-yl)ethyl)piperazin-1-yl)-1,3,4-thiadiazol-2-yl)methyl)acetamide] | 0.05 to 0.2 | –
CC(c1ccc2c(c1)OCC2)N1CCN(c2nnc(CO)s2)CC1 (racemic) [Example 113, (5-(4-(1-(2,3-dihydrobenzofuran-6-yl)ethyl)piperazin-1-yl)-1,3,4-thiadiazol-2-yl)methanol] | < 0.05 | –
CC(O)c1nnc(N2CCN(C(C)c3ccc4c(c3)OCC4)CC2)s1 (racemic) [Example 114, 1-(5-(4-(1-(2,3-dihydrobenzofuran-6-yl)ethyl)piperazin-1-yl)-1,3,4-thiadiazol-2-yl)ethan-1-ol] | < 0.05 | –
CC(O)c1nnc(N2CCN(C(C)c3ccc4nccnc4c3)CC2)s1 (racemic) [Example 115, 1-(5-(4-(1-(quinoxalin-6-yl)ethyl)piperazin-1-yl)-1,3,4-thiadiazol-2-yl)ethan-1-ol] | – | 0.2 to 1
